Tests used:
[1] = Pharmacokinetics in SD rats; assay type: in vivo; settings: vemurafenib dosed
From the text: (§1) Compounds disclosed herein are prodrugs. […] However, the prodrug compounds are modified in vivo to produce a parent compound that has known inhibitory activities against certain protein kinases. Kinase inhibition activity of prodrug compounds is established by quantitating the blood or plasma levels of parent compound after prodrug administration. In vivo blood or plasma levels are reported as Cmax (maximum blood or plasma concentration) and AUC (area under curve from zero to a certain period of time or infinity, a measure of total drug exposure). Methods of measuring Cmax, AUC and other pharmacokinetic parameters in dogs and rats are provided in Example C.
(§2) The LC/MS/MS system used in the analysis consists of an Agilent 1200 Series vacuum degasser, binary pump, well-plate autosampler, thermostated column compartment, the Agilent G6430 TripleQuadrupole Mass Spectrometer with an electrospray ionization (ESI) source. Quantitative analysis was carried out using MRM mode. The parameters for MRM transitions are in the Table A.
(§3) An Agilent XDB-C18, 2.1×30 mm, 3.5 μM column was used for the analysis. 5 μL of the samples were injected. Analysis condition: The mobile phase was 0.1% formic acid in water (A) and 0.1% formic acid in methanol (B). The flow rate was 0.4 mL/min. And the gradient of Mobile phase was in the Table B.
(§4) Alternatively, an Agilent 6330 series LC/MS/MS spectrometer equipped with G1312A binary pumps, a G1367A autosampler and a G1314C UV detector was used in the analysis. An ESI source was used on the LC/MS/MS spectrometer. The analysis was done in positive ion mode as appropriate and the MRM transition for each analyte was optimized using standard solution. A Capcell MP-C18 100×4.6 mm I.D., […] column (Phenomenex, Torrance, Calif., USA) was used during the analysis. The mobile phase was 5 mM ammonia acetate, 0.1% MeOH in water (A): 5 mM ammonia acetate, 0.1% MeOH in acetonitrile (B) (70:30, v/v). The flow rate was 0.6 mL/min. Column was maintained at ambient temperature. 20 μL of the samples were injected.
(§5) Selected compounds of the invention and Vemurafenib were assessed in pharmacokinetic studies in mice, rats, dogs or monkeys. The compounds were administered as a water solution, 2% HPMC+1% TWEEN® 80 in water solution, 5% DMSO+5% solutol in saline, 4% MC or capsule. For the intravenous administration, the animals were generally given at 1 or 2 mg/kg dose. For the oral (p.o.) dosing, mice and rats were generally given 5 or 10 mg/kg dose, and dogs and monkeys were generally given 7-100 mg/kg dose. The blood samples (0.3 mL) were drawn at 0.25, 0.5, 1.0, 2.0, 3.0, 4.0, 6.0, 8.0, 12 and 24 h time points or 0.083, 0.25, 0.5, 1.0, 2.0, 4.0, 6.0, 8.0 and 24 h time points and centrifuged at 3,000 or 4000 rpm for 2 to 10 min. The plasma solutions are collected and stored at −20° C. or −70° C. before analyzed by LC/MS/MS as described above.

[2] = system: B-Raf; settings: B-Raf V600E vs wild-type, purified kinase assays; cited from earlier work
[3] = system: Colo-205 Tumor Xenograft; assay: Colo-205 tumor xenograft model, tumor growth inhibition; assay type: in vivo, athymic nude mice; settings: Colo-205 xenograft, p.o., 15 days
Method: The efficacy of compounds disclosed herein is evaluated in a standard murine model of tumorigenesis. Human tumor cells (i.e., Colo-205 Tumor Xenograft models) are expended in culture, harvested, and injected subcutaneously onto the rear flank of 6-7 week old female athymic nude mice (BALB/cA nu/nu, Shanghai SLAC Laboratory Animal, Co.) (n=10 for vehicle group, n=8 for each dosing group). When tumor reaches a volume of 100-250 mm^3, animals are randomly divided into vehicle control (for example, 5% PEG400+5% Solutol HS 15 in water or 5% EtOH+5% CremophorEL+1% HCl (11.7%), pH 2.2 in water) and compound groups. Subsequent administration of compound by oral gavage (for example, 6-60 mpk/dose, dissolved in 5% PEG400+5% Solutol HS 15 in water or 5% EtOH+5% CremophorEL+1% HCl (11.7%), pH 2.2 in water) begins anywhere from day 0 to day 15 post tumor cell challenge and generally continues with once a day for the duration of the experiment.
Progression of tumor growth is assessed by tumor volumes and recorded as a function of time. The long (L) and short (W) axes of the subcutaneous tumors are measured with calipers twice weekly, and the tumor volume (TV) calculated as (L×W^2)/2). TGI is calculated from the difference between the median tumor volumes of vehicle-treated and drug-treated mice, expressed as a percentage of the median tumor volume of the vehicle-treated control group, by the following relation:
Initial statistical analysis is done by repeated measures analysis of variance (RMANOVA), Followed by Scheffe post-hoc testing for multiple comparisons. Vehicle alone (2% HPMC+1% Tween-80, or the like) is the negative control.
The compouds described herein were also administrated orally (p.o.) once a day (QD) or (BID) for 15 days in Colo-205 xenograft animal model. At doses of 20 mg/kg, the compouds produced statistically significant inhibition of growth of certain tumors grown subcutaneously in athymic nude mice.

[4] = Pharmacokinetics in beagle dogs; assay type: in vivo; settings: vemurafenib dosed
From the text: as §1, §2, §3, §4, §5

[5] = cited from earlier work
[6] = Sprague-Dawley, rat, plasma, IV 1 mg/kg
[7] = Sprague-Dawley, rat, plasma, PO 10 mg/kg

Structure (SMILES): CCCS(=O)(=O)Nc1ccc(F)c(C(=O)c2c[nH]c3ncc(-c4ccc(Cl)cc4)cc23)c1F [Vemurafenib, N-(3-(5-(4-chlorophenyl)-1H-pyrrolo[2,3-b]pyridine-3-carbonyl)-2,4-difluorophenyl)propane-1-sulfonamide]
- F ([1]; PO 10 mg/kg): 104%
- AUC(0-t) [1, 6]: 25200 ng·h/mL
- half-life [1, 6]: 3.75 h
- AUC(0-t) [1, 7]: 261000 ng·h/mL
- Cmax [1, 7]: 25400 ng/mL
- Tmax [1, 7]: 4 h
- half-life [1, 7]: 3.54 h
- selectivity for the V600E mutation over the wild-type kinase [2]: 3 fold
- TGI % (on the last day of dosing) ([3]; 6 mg/kg/qd): 33%
- TGI % (on the last day of dosing) ([3]; 20 mg/kg/bid): 101%
- TGI % (on the last day of dosing) ([3]; 20 mg/kg/qd): 73%
- TGI % (on the last day of dosing) ([3]; 60 mg/kg/qd): 104%
- F ([4]; PO 10 mg/kg): 33.4%
- AUC(0-t) ([4]; dog, plasma, IV 1 mg/kg): 4880 ng·h/mL
- half-life ([4]; dog, plasma, IV 1 mg/kg): 1.59 h
- AUC(0-t) ([4]; dog, plasma, PO 10 mg/kg): 16500 ng·h/mL
- Cmax ([4]; dog, plasma, PO 10 mg/kg): 2150 ng/mL
- Tmax ([4]; dog, plasma, PO 10 mg/kg): 2 h
- half-life ([4]; dog, plasma, PO 10 mg/kg): 3.9 h
- solubility in water [5]: low solubility in water

Source: patent publication US9399639B2, “Substituted azaindole compounds, salts, pharmaceutical compositions thereof and methods of use” (Calitor Sciences, LLC, priority 2012, dated 2016)
